Measurements: US20110212100A1, “METHODS FOR MODULATING DEVELOPMENT AND EXPANSION OF IL-17 EXPRESSING CELLS” (priority 2007, published 2011)

System: B220+ B cells and CD8+ T cells
Experiment: B cell and CD8+ T cell proliferation and function
Assay type: cell-based, mouse
Protocol: The non-specific effects of HF on B and CD8+ T cells were evaluated. B220+ B cells or CD8+ T cells were isolated from the spleen and peripheral lymph nodes of C57B/6 mice. B cell proliferation and IL-6 production was induced by culturing the cells with LPS (0.5 μg/ml) for 4 days. The effects of HF on B cell function was determined by adding titrating amounts of HF (1.25 nM-40 nM) at the time of LPS stimulation. B cell proliferation was monitored by labeling cells with Carboxyfluorescein diacetate, succinimidyl ester (CFSE; 5 μM) prior to LPS stimulation and determining the rate of CFSE dilution after 4 days by flow cytometric analyses. LPS-induced IL-6 production by B cells was determined by intracellular staining on day 4, following PMA+Ionomycin+Brefeldin A re-stimulation as described above. For CD8+ T cell experiments, purified CD8+ T cells were labeled with CFSE as above and the T cells were activated using anti-CD3 (1 μg/ml) and anti-CD28 (1 μg/ml) antibodies. […] CD8+ T cell proliferation was determined by monitoring CFSE dilution on day 3-post activation; CD25 expression was determined by FACS staining on day 2 of culture; differentiation of CD8+ T cells into cytolytic T cells (CTL) was evaluated on day 4 by determining expression of IFNγ and granzyme B following PMA+Ionomycin+Brefeldin A re-stimulation. […]

With `O=C(CC1NCCCC1O)Cn1cnc2cc(Br)c(Cl)cc2c1=O` (racemic) [HF, 7-bromo-6-chloro-3-[3-(3-hydroxy-2-piperidinyl)-2-oxopropyl]-4(3H)-quinazolinone] the “dose at which B and CD8+ T cells were profoundly impaired in proliferation and function” value was “greater than 20 nM” and the “effect on B and CD8+ T cell function or proliferation, in words” value (doses lower than 10 nM) was “little or no effect”.
